test: Antagonist activity at rabbit PAF receptor assessed as inhibition of PAF-induced platelet aggregation incubated for 5 mins followed by PAF addition; conditions: Oryctolagus cuniculus

Row | IC50 [nM] | SMILES
1 | 390 | C=CC[C@H]1C[C@]2(OC)C(=C(OC)C1=O)O[C@@H](c1cc(OC)c3c(c1)OCO3)[C@@H]2C
2 | 230 | C=CC[C@H]1C[C@]2(OC)C(=C(OC)C1=O)O[C@@H](c1cc(OC)c(OC)c(OC)c1)[C@@H]2C
3 | 150 | C=CCC1=C[C@@]2(OC)C(=CC1=O)O[C@H](c1ccc(OC)c(OC)c1)[C@H]2C [KADSURENONE]
4 | 930 | C[C@@H]1C(=O)O[C@H]2[C@H](O)[C@@]34[C@H]5C[C@@H](C(C)(C)C)[C@]36[C@@H](OC(=O)[C@@H]6O)O[C@@]4(C(=O)O5)[C@@]12O [GINKOLIDE B]
5 | 1090 | C=CCC1=C[C@]2(OC)[C@H](C)[C@@H](c3cc(OC)c4c(c3)OCO4)[C@](OC)(C1=O)[C@H]2O [CINERIN C]

Reference: ChEMBL document CHEMBL4196190, “Tetrahydrobenzofuran-6(2 H)-one Neolignans from Ocotea heterochroma: Their Platelet Activating Factor (PAF) Antagonistic Activity and in Silico Insights into the PAF Receptor Binding Mode” (J Nat Prod, 2018)
